The values below come from US20090004185A1, “AMINO-SUBSTITUTED QUINAZOLINE DERIVATIVES AS INHIBITORS OF BETA-CATENIN/TCF-4 PATHWAY AND CANCER TREATMENT AGENTS” (WYETH, priority 2007, published 2009).

A word on the IC50: it is the point on the concentration scale where inhibition reaches its midpoint. In general, melting point refers to the temperature of the solid-liquid transition.

One series deals with β-catenin/Tcf-4. Description: cells. It counts as cell-based. The following applies: Homo sapiens, 24 hours of incubation with compound, ratio Firefly/Renilla luciferase. Put shortly: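 SW480-derived lines with integrated reporters (Tcf-4-driven firefly luciferase; SV40 firefly as specificity control; SV40 Renilla for cell number/toxicity), treated 24 hours with titrated compounds, final 0.316% DMSO. Dual-luciferase read-out; firefly/Renilla ratio as % of control, duplicate plates, IC50 (nM) from curve fit.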

The next series relates to SV40-Luc. Description: SV40-Luc control luciferase reporter assay, SV 5A8 cell line (SV40-Luc and SV40-R-Luc), control for non-specific inhibitors. It is filed as cell-based, human. The settings on record: Homo sapiens, SV5A8, 24 h, SV 5A8 cells derived from SW480; 24 hours of incubation with compound; ratio Firefly/Renilla luciferase. Put shortly: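 Stable SW480 reporter clones are exposed to compound dilutions for 24 h at 0.316% DMSO. Firefly signal, Tcf-4- or SV40-driven, is divided by SV40-Renilla signal, and IC50 is derived from this ratio relative to control.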

Where [1] appears, read: SW480, 24 h, Tcf 33.13 cells derived from SW480.
The mark [2] stands for this setting: Tcf22C11, 24 h, Tcf 22C11 cells derived from SW480.

`Cc1ccc2c(NCc3ccc(NC(=O)c4ccc(Cl)cc4)cc3)nc(N3CCCCCC3)nc2c1` [Example 198, N-(4-{[(2-azepan-1-yl-7-methylquinazolin-4-yl)amino]methyl}phenyl)-4-chlorobenzamide]: the melting point fell in the range of 192 to 194 °C. Further, the IC50 in the series on β-catenin/Tcf-4 (setting [1]) worked out at 253 nM. Also, the IC50 in the series with β-catenin/Tcf-4 (setting [2]) came to 346 nM. Also, in the series with SV40-Luc, the concentration for half-maximal inhibition (IC50) is above 2500 nM.

`Cc1ccc2c(NCc3ccc(NC(=O)c4ccc(F)cc4)cc3)nc(NCCc3ccccn3)nc2c1` [Example 232, 4-fluoro-N-{4-[({7-methyl-2-[(2-pyridin-2-ylethyl)amino]quinazolin-4-yl}amino)methyl]phenyl}benzamide] registered a melting point of 112 to 115 °C. In addition, the IC50 with β-catenin/Tcf-4 (setting [1]) was 292 nM. The IC50 with β-catenin/Tcf-4 (setting [2]) is 408 nM. In addition, the IC50 in the series on SV40-Luc is above 2470 nM.

The molecule `Cc1ccc2c(NCc3ccc(NC(=O)c4ccc(F)cc4)cc3)nc(NC3CCN(Cc4ccccc4)CC3)nc2c1` [Example 233, N-{4-[({2-[(1-benzylpiperidin-4-yl)amino]-7-methylquinazolin-4-yl}amino)methyl]phenyl}-4-fluorobenzamide] showed a melting point of 135 to 138 °C. In addition, the half-inhibitory concentration (IC50) in the series with β-catenin/Tcf-4 (setting [1]) was above 2180 nM. Besides, the half-maximal inhibitory concentration (IC50) in the series on β-catenin/Tcf-4 (setting [2]) was above 4350 nM. Moreover, the IC50 in the series with SV40-Luc was above 4350 nM.

As to `Cc1ccc2c(NCc3ccc(NC(=O)c4ccc(F)cc4)cc3)nc(N3CCCCCC3)nc2c1` [Example 235, N-(4-{[(2-azepan-1-yl-7-methylquinazolin-4-yl)amino]methyl}phenyl)-4-fluorobenzamide], the melting point is 135 to 139 °C. In addition, the IC50 in the series with β-catenin/Tcf-4 (setting [1]) was found to be 448 nM. In the series with β-catenin/Tcf-4 (setting [2]), the IC50 was 451 nM. For the same molecule, the 50% inhibitory concentration (IC50) in the series on SV40-Luc was above 5170 nM.

In turn, `CNc1nc(NCc2ccc(NC(=O)c3ccc(Br)cc3)cc2)c2ccc(C)cc2n1` [Example 238, 4-bromo-N-[4-({[7-methyl-2-(methylamino)quinazolin-4-yl]amino}methyl)phenyl]benzamide] showed a melting point of 295 to 298 °C. Further, in the series on β-catenin/Tcf-4 (setting [1]), the 50% inhibitory concentration (IC50) turned out to be 255 nM. In addition, in the series with β-catenin/Tcf-4 (setting [2]), the half-inhibitory concentration (IC50) came to 284 nM. Also, the 50% inhibitory concentration (IC50) in the series with SV40-Luc was above 1310 nM.

Take `CNc1nc(NCc2ccc(NC(=O)c3ccc(C)nc3)cc2)c2ccc(C)cc2n1` [Example 240, 6-methyl-N-[4-({[7-methyl-2-(methylamino)quinazolin-4-yl]amino}methyl)phenyl]nicotinamide]: the melting point was in the range of 257 to 259 °C. Also, the IC50 in the series with β-catenin/Tcf-4 (setting [1]) amounted to 793 nM. Besides, the IC50 in the series with β-catenin/Tcf-4 (setting [2]) is 900 nM. Besides, the IC50 in the series with SV40-Luc is above 3030 nM.

As to `Cc1ccc2c(NCc3ccc(NC(=O)C4CCN(Cc5ccc(F)c(F)c5)CC4)cc3)nc(N(C)C)nc2c1` [Example 255, 1-(3,4-difluorobenzyl)-N-[4-({[2-(dimethylamino)-7-methylquinazolin-4-yl]amino}methyl)phenyl]piperidine-4-carboxamide], the melting point was 97 to 99 °C. Moreover, the half-maximal inhibitory concentration (IC50) in the series on β-catenin/Tcf-4 (setting [1]) amounted to 106 nM. Besides, the IC50 in the series on β-catenin/Tcf-4 (setting [2]) came to 196 nM. In addition, the IC50 with SV40-Luc is above 2300 nM.

For the molecule `Cc1ccc2c(NCc3ccc(NC(=O)C4CCN(Cc5ccc(C(F)(F)F)cc5)CC4)cc3)nc(N(C)C)nc2c1` [Example 256, N-[4-({[2-(dimethylamino)-7-methylquinazolin-4-yl]amino}methyl)phenyl]-1-[4-(trifluoromethyl)benzyl]piperidine-4-carboxamide], the melting point is 126 to 128 °C. Besides, in the series on β-catenin/Tcf-4 (setting [1]), the IC50 was 706 nM. Moreover, the IC50 with β-catenin/Tcf-4 (setting [2]) was 967 nM. The half-inhibitory concentration (IC50) in the series with SV40-Luc was above 8670 nM.
